Measurements from patent US10851065B2 (Eisai R&D Management Co., Ltd., priority 2015, dated 2020).

Tested on: MCF7 xenograft (ESR1 wild-type human ER+ breast cancer)
Experiment: MCF7 xenograft study
Assay type: in vivo
Settings: for Tumor Growth Inhibition (TGI): day 17, hydrochloride salt
Description: The ESR1 wild-type human ER+ breast cancer cell line MCF7 (ATCC) was cultured in DMEM media supplemented with 10% FBS at 37° C. in a 5% CO2 atmosphere and kept in the exponential growth phase. The cells were collected in trypsin and re-suspended in a 1:1 mixture of matrigel and HBSS at a final concentration of 5×10^7 cells/mL. A 0.2 mL aliquot of cells was injected subcutaneously into the 3rd mammary fat pad of 6-8 week old female Balb/c nude mice, giving 1×10^7 cells/mouse. When the average tumor volume reached approximately 155 mm^3, 92 animals were randomized prior to treatment.
All of the compounds were dosed orally every day at doses ranging from 1 to 30 mg/kg. Each treatment was started on Day 0 and the administration schedule was continued for 17 days. The administration volume was calculated from the individual mouse body weights prior to dose administration. The body weights were measured daily while the tumor volumes were measured twice a week. Tumor volumes (TV) were calculated based on the formula: TV=length×width^2×0.5
length: largest diameter of tumor (mm)
width: diameter perpendicular to length (mm)
The Tumor Growth Inhibition % (TGI) was calculated according to the following formula: […]
Where Day X is the endpoint measurement.
Data are expressed as the mean±SEM for tumor volume and the mean±SEM for body weight.
The differences in tumor volume during the study period between the vehicle treated and compound treated groups were analyzed by two-way analysis of variance (ANOVA) followed by the Dunnett multiple comparison post hoc test.

SMILES: CC/C(=C(/c1ccc(OCCNC/C=C/C(=O)N(C)C)cc1)c1ccc2[nH]ncc2c1)c1ccccc1 [compound 1, (E)-4-((2-(4-((E)-1-(1H-indazol-5-yl)-2-phenylbut-1-en-1-yl)phenoxy)ethyl)amino)-N,N-dimethylbut-2-enamide]
- Tumor Growth Inhibition (TGI) (1 mg/kg QD oral): 19%
- Tumor Growth Inhibition (TGI) (3 mg/kg QD oral): 41%
- Tumor Growth Inhibition (TGI) (10 mg/kg QD oral): 68%
- Tumor Growth Inhibition (TGI) (30 mg/kg QD oral): 83%
- Tolerability / body weight (all doses 1-30 mg/kg QD oral, 17 days, hydrochloride salt): well tolerated with no significant body weight loss
